Assay results published in US20180353512A1, “COMBINATION THERAPIES FOR TREATING B-CELL MALIGNANCIES” (GILEAD SCIENCES, INC., priority 2015, published 2018).

Legend:
Type in all cases: cell-based
p-AKT S473 = experiment: Western Blot / Peggy Sue in TMD8^R cells (Example 7); details: idelalisib 420 nM, Compound B 320 nM
Description: Idelalisib-resistant (TMD8^R) cell line and passage-matched Idelalisib-sensitive (TMD8^S) cell line were generated according to the procedure described in Example 5 above. To characterize the resistant cells, cell viability assays, RNASeq of multidrug resistance (MDR) family of ABC transporter genes (N=33), apoptosis assays, and phosphoprotein analysis were performed. Cell viability was measured using CellTiter-Glo, as described in Example 1A above. Western blot and protein level analysis were performed after treatment with 420 nM idelalisib, 320 nM Compound B and combination thereof, using Peggy Sue (ProteinSimple) automated Western Blot system. Protein concentration (pg/μL) was quantitated using recombinant protein standards. Normalized AUC were determined for each of the treatment groups, normalized to actin. Apoptosis was assessed by propidium iodide and Annexin V/FITC staining and measured by flow cytometry, as described in Example 1A above. Western Blot with anti-p-AKT (S473) antibody and Peggy Sue were used to determine the phosphorylation state of downstream signaling components.

pBTK (Y223) = experiment: TMD-8 Western Blots; details: for pBTK (Y223), Western Blot: TMD-8
Description: (§1) Western Blot samples were prepared by lysing 10^6 cells for 30 minutes in 150 μL ice-cold lysis buffer. Protease Inhibitor Cocktail (Roche Diagnostics Corp), and phosphatase inhibitor sets 1 and 2 (EMD Millipore) were also added to the lysis buffer (Cell Signaling Technology). Cells were centrifuged at 12.5 g for 10 minutes at 4° C.; supernatant was collected and transferred to new tube. Sample buffer was added to each lysate, and then boiled at 99° C. for 5 minutes. Protein was loaded into an SDS-PAGE gel and run for 2 h at 125V. After electrophoresis, gel was transferred to Immobilon-F membrane using the X Cell Blot. The membrane was then blocked for 1 h at room temperature in blocking buffer and incubated overnight with primary antibodies diluted in a blocking buffer. The following day, the membranes were washed 3× (5 min each) with TBST; secondary antibodies were added and membrane was incubated for 45 minutes at room temperature, followed by 3×TBST (5 min each). Blots were read using Licor Imager. Primary antibodies included p-AKT (S473), p-BTK (Y223), BTK, p-ERK (T202/Y204), ERK, and actin (Cell Signaling Technologies), and secondary antibodies included IRDye-conjugated anti-mouse and anti-rabbit antibodies; LI-COR. Band intensity was measured using LI-COR imager and LI-COR Odyssey software.

pAKT (Ser 473) = experiment: TMD-8 Western Blots; details: for pAKT (Ser 473), Western Blot: TMD-8
Description: as §1

pErk1/2 (T202/Y204) = experiment: TMD-8 Western Blots; details: for pErk1/2 (T202/Y204), Western Blot: TMD-8
Description: as §1

JVM-2 cells = experiment: ATPLite anti-proliferation assay (GI) and synergy score, 120 h
Description: (§2) The endpoint readout of the anti-proliferation assay was based upon quantitation of ATP as an indicator of viable cells. Cells were thawed from a liquid nitrogen preserved state. Once cells had been expanded and divided at their expected doubling times, screening began. Cells were seeded in growth media in black 384-well tissue culture treated plates at 500 cells per well (except where noted in Analyzer). Cells were equilibrated in assay plates via centrifugation and placed in incubators attached to the Dosing Modules at 37° C. for twenty-four hours before treatment. […] These Tzero (T0) plates were read using ultra-sensitive luminescence on Envision Plate Readers. Treated assay plates were incubated with the compound for one hundred twenty hours. After one hundred twenty hours, plates were developed for endpoint analysis using ATPLite. All data points were collected via automated processes; quality controlled; and analyzed using Horizon CombinatoRx proprietary software. Assay plates were accepted if they pass the following quality control standards: relative luciferase values were consistent throughout the entire experiment, Z-factor scores were greater than 0.6, untreated/vehicle controls behaved consistently on the plate.
(§3) Horizon Discovery utilized Growth Inhibition (GI) as a measure of cell viability. The cell viability of vehicle was measured at the time of dosing (T0) and after one hundred twenty hours (T120). A GI reading of 0% represented no growth inhibition—cells treated with compound and T120 vehicle signals were matched. […] A GI 200% represents complete death of all cells in the culture well. Compounds reaching an activity plateau of GI 200% were considered cytotoxic. Horizon CombinatoRx calculates GI by applying the following test and equation: […]
(§4) To measure combination effects in excess of Loewe additivity, Horizon Discovery has devised a scalar measure to characterize the strength of synergistic interaction termed the Synergy Score. The Synergy Score was calculated as:
(§5) Synergy Score=log fx log fyΣmax(0,Idata)(Idata−ILoewe)
(§6) The fractional inhibition for each component agent and combination point in the matrix was calculated relative to the median of all vehicle-treated control wells. The Synergy Score equation integrated the experimentally-observed activity volume at each point in the matrix in excess of a model surface numerically derived from the activity of the component agents using the Loewe model for additivity. Additional terms in the Synergy Score equation (above) were used to normalize for various dilution factors used for individual agents and to allow for comparison of synergy scores across an entire experiment. The inclusion of positive inhibition gating or an Idata multiplier removed noise near the zero effect level, and biased results for synergistic interactions at that occur at high activity levels.
(§7) The cell viability of vehicle was measured at the time of dosing (T0) and after 120 h (T120). […] To measure combination effects, excess of Loewe additivity was used to characterize the strength of synergistic interaction, termed the synergy score. The assay and synergy score analysis were performed in accordance with the protocol set forth in Example 1B above.

Maver-1 cells = experiment: as above
Description: as §2, §3, §4, §5, §6, §7

Jeko-1 cells = experiment: as above
Description: as §2, §3, §4, §5, §6, §7

Rec-1 cells = experiment: as above
Description: as §2, §3, §4, §5, §6, §7

JMP-1 cells = experiment: as above
Description: as §2, §3, §4, §5, §6, §7

PF-2 cells = experiment: as above
Description: as §2, §3, §4, §5, §6, §7

Z-138 cells = experiment: as above
Description: as §2, §3, §4, §5, §6, §7

Granta-519 cells = experiment: as above
Description: as §2, §3, §4, §5, §6, §7

JVM-13 cells = experiment: as above
Description: as §2, §3, §4, §5, §6, §7

PF-1 cells = experiment: as above
Description: as §2, §3, §4, §5, §6, §7

Mino cells = experiment: as above
Description: as §2, §3, §4, §5, §6, §7

[1] = Homo sapiens, TMD8, FIG. 2E, single agent, idelalisib 420 nM, Compound B 320 nM, time not stated, read-out: inhibition to p-AKT (S473)
[2] = Homo sapiens, TMD8, FIG. 2E, single agent, idelalisib 420 nM, Compound B 320 nM, time not stated, read-out: inhibition to p-ERK (T202/Y204)

SMILES | p-AKT (p-AKT S473) | pBTK (Y223), Western Blot (pBTK (Y223); 2 hr, DMSO 0.36) | pBTK (Y223), Western Blot (pBTK (Y223); 24 hr, DMSO 0.33) | pAKT (Ser 473), Western Blot (pAKT (Ser 473); 2 hr, DMSO 0.45) | pAKT (Ser 473), Western Blot (pAKT (Ser 473); 24 hr, DMSO 0.54) | pErk1/2 (T202/Y204), Western Blot (pErk1/2 (T202/Y204); 2 hr, DMSO 1.09) | pErk1/2 (T202/Y204), Western Blot (pErk1/2 (T202/Y204); 24 hr, DMSO 1.49) | Max. Effect (% GI) (JVM-2 cells) | Max. Effect (% GI) (Maver-1 cells) | Max. Effect (% GI) (Jeko-1 cells) | Max. Effect (% GI) (Rec-1 cells) | Max. Effect (% GI) (JMP-1 cells) | Max. Effect (% GI) (PF-2 cells) | Max. Effect (% GI) (Z-138 cells) | Max. Effect (% GI) (Granta-519 cells) | Max. Effect (% GI) (JVM-13 cells) | Max. Effect (% GI) (PF-1 cells) | Max. Effect (% GI) (Mino cells) | other results
CCC(Nc1ncnc2[nH]cnc12)c1nc2cccc(F)c2c(=O)n1-c1ccccc1 (centres unmarked) [Idelalisib, 2-(1-((9H-Purin-6-yl)amino)propyl)-5-fluoro-3-phenylquinazolin-4(3H)-one] | inhibited | 0.39 normalized integrated intensity | 0.27 normalized integrated intensity | 0.19 normalized integrated intensity | 0.12 normalized integrated intensity | 0.40 normalized integrated intensity | 0.55 normalized integrated intensity | 146 % GI | 48 % GI | 73 % GI | 163 % GI | 69 % GI | 113 % GI | 11 % GI | 72 % GI | 92 % GI | 29 % GI | 34 % GI | inhibition at 0.42 µM (pAKT (Ser 473); [1]): 58%; inhibition at 0.42 µM (pErk1/2 (T202/Y204); [2]): 71%
CC#CC(=O)N1CC[C@@H](n2c(=O)n(-c3ccc(Oc4ccccc4)cc3)c3c(N)ncnc32)C1 [Compound B, 6-amino-9-[(3R)-1-(2-butynoyl)-3-pyrrolidinyl]-7-(4-phenoxyphenyl)-7,9-dihydro-8H-purin-8-one] | not | 0.16 normalized integrated intensity | 0.14 normalized integrated intensity | 0.24 normalized integrated intensity | 0.35 normalized integrated intensity | 0.47 normalized integrated intensity | 0.93 normalized integrated intensity | 91 % GI | 45 % GI | 37 % GI | 111 % GI | 14 % GI | 25 % GI | 11 % GI | 22 % GI | 15 % GI | 9 % GI | 35 % GI | inhibition at 0.32 µM (pBTK (Y223); Homo sapiens, TMD8, FIG. 2E, single agent, Compound B 320 nM, time not stated, read-out: inhibition of p-BTK (Y223)): 59%; inhibition at 0.32 µM (pAKT (Ser 473); [1]): 46%; inhibition at 0.32 µM (pErk1/2 (T202/Y204); [2]): 48%
